Here are results for two compounds from paper PMC8348766, “Enhancement of Anti-Tumoral Immunity by β-Casomorphin-7 Inhibits Cancer Development and Metastasis of Colorectal Cancer” (International Journal of Molecular Sciences, 2021).

The target in series [1] is T1, CD10 (Homo sapiens, UniProt P08473). Nature of the series: Suppression of CD10-mediated BCM degradation by thiorphan. The note with it: TOP 1 μM in combination with CD10; 125I-labeled BCM 50 μg. The series is classed as biochemical.
The conditions of series [2]: cited from earlier work. The text has this:
BCM also acts on the immune system. […] Conversely, BCM suppresses lymphocyte proliferation at low concentrations, but promotes it at high concentrations above 10^−7 M [18] by activating the T cell helper (Th)-2 pathway, which induces an inflammatory response in the gut. […] Therefore, under such physiological conditions, BCM presents only in low concentrations and might suppress the immune syst ... || The CD10 that we examined in this study has various alternative names, including membrane metalloendopeptidase, common acute lymphocytic leukemia antigen, neprilysin, neutral endopeptidase, enkephalinase, and atriopeptidase [NCBI, OMIM]. CD10 is known to degrade short peptides such as natriuretic peptides, angiotensin II, bradykinin, apelins, substance P, and adrenomedullin [38]. CD10 expression is widespread in the intestinal mucosa. Incubation of BCM with brush border of the intestinal mucosa degrades 95% of BCM in 24 h.

Series [3] addresses T1, CD10. The series is described as follows: Degradation of 125I-labeled BCM by CD10. It counts as in vitro ADME. As for the experimental part:
Figure 1 Effect of BCM on spleen cells and degradation of BCM by CD10. (A) Effect of BCM on subpopulations of spleen cells. Spleen cells of BALB/c mice were treated with BCM (0.1 μg/mL) for 48 h. Differentiation markers were examined by ELISA. (B) Effect of CD10 on degradation of BCM. ^125I-labeled BCM (50 μg) was incubated with CD10 for 16 h. Intact BCM bound to anti-BCM antibody and degraded peptides were separated with electrophoresis and detected by autoradiography. […] (E) Time course of degradation of BCM by CD10. ^125I-labeled BCM (50 μg) was incubated with CD10 (60 μg) and TOP (1 μM). (F) Effect of degraded BCM on subset of spleen cells. Error bar, standard deviation from three independent trials. BCM, β-casomorphin-7; cluster of differentiation; ELISA, enzyme-linked immunosorbent assay; Treg, regulatory T cell; tyr-pro, 1st and 2nd amino acids of BCM; Ab, anti-BCM antibody; TOP, thiorphan.
The N-terminal tyrosine of BCM was labeled with ^125I, and then treated with CD10, followed by treatment with an anti-BCM antibody and electrophoresis in a 15–25% polyacrylamide gel. […] It is considered that a short fragment of tyr-pro at the N-terminal of ^125I-labeled BCM was cleaved. […] In contrast, no decrease in intact BCM was observed when it was additionally treated with TOP. Of note, the CD10 degradation product of BCM had no effect on the lymphocyte subset (Figure 1F).
BCM was purchased from Sigma. Di-amino acid peptide (tyr-pro; 1st and 2nd amino acids of BCM) was synthesized by Peptide Institute Inc. (Ibaraki, Japan). BCM and the tyr-pro peptide were labeled by chloramine-T method with ^125I (J-RAM, Tokyo, Japan) using Pierce™ iodination beads (Thermo Fisher). Labeled BCM was incubated with CD10 in neutral peptidase assay buffer (40 mM Tris-HCl pH 7.1, 4 mM MgCl2, 0.5 mM ZnCl2) for 16 h. Thereafter, the solution was incubated with anti-BCM antibody (Abnova, Taipei City, Taiwan) at 37 °C for 2 h. […] The radioactivity of the solution was also measured by a fluid scintillation counter (LSC-8000, Hitachi, Tokyo, Japan).

No end group written: not given here.

T1 sequence (P08473 whole entry, species assumed): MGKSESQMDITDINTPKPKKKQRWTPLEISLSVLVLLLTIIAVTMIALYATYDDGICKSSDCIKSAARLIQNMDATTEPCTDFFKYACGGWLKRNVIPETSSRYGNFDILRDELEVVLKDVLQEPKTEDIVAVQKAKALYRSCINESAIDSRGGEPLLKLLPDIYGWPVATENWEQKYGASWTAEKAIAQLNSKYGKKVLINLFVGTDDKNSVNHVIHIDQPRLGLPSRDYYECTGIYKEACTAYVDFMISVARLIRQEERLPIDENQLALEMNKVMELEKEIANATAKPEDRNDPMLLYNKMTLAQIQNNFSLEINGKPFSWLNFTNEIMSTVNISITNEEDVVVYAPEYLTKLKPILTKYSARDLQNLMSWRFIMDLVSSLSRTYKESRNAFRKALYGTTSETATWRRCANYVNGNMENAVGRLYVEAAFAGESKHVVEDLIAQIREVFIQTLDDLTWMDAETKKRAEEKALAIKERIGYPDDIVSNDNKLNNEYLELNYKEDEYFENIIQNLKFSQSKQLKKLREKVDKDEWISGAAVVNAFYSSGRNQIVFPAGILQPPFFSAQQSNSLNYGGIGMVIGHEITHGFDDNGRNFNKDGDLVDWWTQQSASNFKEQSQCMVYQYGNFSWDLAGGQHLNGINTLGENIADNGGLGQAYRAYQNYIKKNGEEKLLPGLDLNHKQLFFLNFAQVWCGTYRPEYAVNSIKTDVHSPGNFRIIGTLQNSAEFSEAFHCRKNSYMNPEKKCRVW

`O=C(O)CNC(=O)C(CS)Cc1ccccc1` (stereo not drawn) [TOP, thiorphan]: the “degradation of BCM by CD10 in presence of TOP” value at CD10 [1] is recorded as “completely suppressed”.

YPFPGPI [BCM, β-Casomorphin-7]: the “fraction of BCM degraded on incubation with brush border of the intestinal mucosa” value in series [2] (24 h) is given as 95%. The “fraction of BCM degraded by digestive juice and jejunal brush border” value in series [2] is reported as 95%. Moreover, the “degraded fragment observed after CD10 treatment” value on CD10 [3] (125I label on N-terminal tyrosine, position in polyacrylamide gel compared with labeled marker) is on record as “tyr-pro”. Moreover, at CD10 [3] (CD10 60 μg/mL + TOP 1 μM, time course, 125I-labeled BCM 50 μg), the “change in intact BCM over time with CD10 plus TOP” value is recorded as “no decrease”. Further, the “time after which intact BCM completely disappeared” value on CD10 [3] (CD10 60 μg/mL, time course, 125I-labeled BCM 50 μg, Tris-HCl pH 7.1 buffer, electrophoresis, autoradiography) was found to be 24 h.
